From US20230346889A9, “TREATMENT OF ACUTE HEART FAILURE” (AnaCardio R&D AB, priority 2019, published 2023)
Several values for one entry are separate records, joined by “and”; a condition that tells them apart may be missing. Equal entries are not always repeated. Entries after “also recorded” stand apart in the source; their conditions may differ. Marks after values point to notes of the source that are not given here.

Key:
[1] = test system: patients with advanced CHF and reduced EF; experiment: Trial safety and clinical outcomes (hypotension, arrhythmia, ischemia, symptoms, events); format: in vivo, human
Protocol: Safety outcomes included reduction in systolic blood pressure, hypotension, and symptomatic hypotension, prolongation of the QTc, ischemia, and arrhythmia during or after infusion, and clinical outcomes.
The following symptoms were assessed as yes or no prior to infusion and after 30, 60, 120 min and 30 min after infusion and at the 2-5 days follow-up; headache, dizziness, dyspnea, central chest pain, flush, sleepiness, upset stomach and other symptoms. The following signs were recorded prior to start of infusion and after lunch; rales, peripheral oedema, jugular venous distension, hepatomegaly and S3 gallop.
Hypotension was assessed in two ways: The difference in change in blood pressure between the groups was quantified, and hypotension in any one patient was defined as a drop of systolic blood pressure of >20 mm Hg or to <80 mm Hg.
The difference in change in heart rate between the groups was quantified. Bradycardia was defined as a reduction in heart rate of >15 beats per minute, to a heart rate <40 beats per minute, an increase in PQ time by >20 ms, or AV block II-III. In individual patients, tachycardia was defined as an increase in heart rate by >10 beats per minute or heart rate >110 beats per minute. Ventricular extraystoles were quantified and ventricular tachycardia was defined as non-sustained if ≥3 beats in a row up to ≤30 seconds, and sustained if >30 seconds. Supra-ventricular arrhythmia was defined as ectopic atrial tachycardia, atrial flutter or atrial fibrillation, or AV-nodal tachycardia of >3 seconds duration. Ghrelin may […] hERG channels and as such cause a prolongation of the QTc interval on the EKG, which theoretically could predispose to arrhythmia. Therefor we monitored QTc.
Ischemia was assessed in two ways: The difference in change in troponin T between the groups was quantified, and ischemia in any one patient was defined as symptoms of ECG changes consistent with ischemia, or a rise in troponin T of >50%.
Patients were followed in the medical record until 30 Apr. 2017. Outcomes were freedom from all-cause death; all cause death or HF hospitalization; all cause death or heart transplantation or left ventricular assist device, and a combination of all these.

[2] = test system: patients with advanced CHF and reduced EF; experiment: Trial serum and plasma biomarkers; format: in vivo, human
Protocol: Blood samples were collected in 1) morning fasting state baseline, 2) after standardized breakfast prior to intervention, 3) after 30 min infusion, 4) after 60 min infusion and 5) after 120 min infusion, 6) 30 min after completed infusion and 7) at follow-up 2-5 days later (FIG. 2). Blood was collected in ethylenediaminetetraacetic acid (EDTA) and serum tubes and immediately centrifuged and plasma and serum was aliquoted and stored in −70° C. until analysis.
Creatinine clearance was calculated according to the Cockcroft-Gault equation; ([140-age] * weight in kg*1.23)/creatinine*0.85 (if […]). Renal function was measured by creatinine and cystatin-C at Karolinska University Hospital core laboratory. NT-proBNP was analyzed by proBNPII (Roche Diagnostics, Bromma, Sweden). Plasma glucose measurements were from EDTA-containing whole venous blood tubes and analyzed with a photometric point-of-care technique, the HemoCue® Glucose 201 RT (Ängelholm, Sweden). Troponin T was analyzed in the Karolinska University Hospital core laboratory.

[3] = Baseline, bracketed range in line below

For `CCCCCCCC(=O)OC[C@H](NC(=O)[C@H](CO)NC(=O)CN)C(=O)N[C@@H](Cc1ccccc1)C(=O)N[C@@H](CC(C)C)C(=O)N[C@@H](CO)C(=O)N1CCC[C@H]1C(=O)N[C@@H](CCC(=O)O)C(=O)N[C@@H](Cc1cnc[nH]1)C(=O)N[C@@H](CCC(N)=O)C(=O)N[C@@H](CCCNC(=N)N)C(=O)N[C@H](C(=O)N[C@@H](CCC(N)=O)C(=O)N[C@@H](CCC(N)=O)C(=O)N[C@@H](CCCNC(=N)N)C(=O)N[C@@H](CCCCN)C(=O)N[C@@H](CCC(=O)O)C(=O)N[C@@H](CO)C(=O)N[C@@H](CCCCN)C(=O)N[C@@H](CCCCN)C(=O)N1CCC[C@H]1C(=O)N1CCC[C@H]1C(=O)N[C@@H](C)C(=O)N[C@@H](CCCCN)C(=O)N[C@@H](CC(C)C)C(=O)N[C@@H](CCC(N)=O)C(=O)N1CCC[C@H]1C(=O)N[C@@H](CCCNC(=N)N)C(=O)O)C(C)C` [Ghrelin], the “troponin T in the one patient with >50% increase” value (from here on “troponin T … with >50% increase”) ([1]; Baseline) was 31 ng/L, the patients with flush ([1]; at 60 min, vs. 0 placebo, p=0.006) was 7 and the “troponin T … with >50% increase” value ([1]; at FU) was 164 ng/L. The incidence of hypotension ([1]; drop of systolic BP >20 mm Hg or to <80 mm Hg) was “no incidence of hypotension; also recorded: no events of hypotension or symptomatic hypotension”, the “troponin T … with >50% increase” value ([1]; during infusion (successive samples)) was 38 ng/L and 42 ng/L and 43 ng/L and 34 ng/L and the “patients with a >50% increase in troponin T” value ([1]; ghrelin group (n = 15)) was “One”. For the same compound, the “effect on heart rate” value ([1]; human, in vivo) was “no effect”, the “incidence of ventricular tachy or brady arrhythmias” value ([1]; human, in vivo) was “no effect” and the “symptoms or EKG changes consistent with ischemia” value ([1]; human, in vivo) was “no symptoms or EKG changes consistent with ischemia”. For the same compound, the “clinical events vs placebo” value ([1]; over 90 days follow-up) was “no differences in clinical events”, the ALAT ([2]; 2-5 days FU) was 0.31 ukat/L and the ASAT ([2]; 2-5 days FU) was 0.42 ukat/L. For the same compound, the “Cystatin C” value ([2]; 2-5 days FU) was 1.59 ± 0.52* mg/L, the GT ([2]; 2-5 days FU) was 0.83 ukat/L and the Haematocrit ([2]; 2-5 days FU) was 41 ± 5%. The “INR among non-warfarin treated” value ([2]; 2-5 days FU) was 1.0, the “INR among warfarin treated” value ([2]; 2-5 days FU) was 2.6 and the “Insulin (non-fasting)” value ([2]; 2-5 days FU) was 30 mlE/L. The NT-proBNP ([2]; 2-5 days FU) was 2450* ng/L, the Potassium ([2]; 2-5 days FU) was 4.3 ± 0.4 mmol/L and the Sodium ([2]; 2-5 days FU) was 138 ± 12 mmol/L. The Triglycerides ([2]; 2-5 days FU) was 1.6 mmol/L, the “Troponin T” value ([2]; 2-5 days FU) was 31 ± 38 ng/L and the “White blood cell count” value ([2]; 2-5 days FU) was 7.4 ± 2.0 109/L. For the same compound, the hsCRP ([2]; 2-5 days FU) was 3.0 mg/L, the “NT-proBNP” value ([2]; 2-5 days after infusion) was “remained elevated” and the ALAT ([2]; 30′ after infusion) was 0.32 ukat/L. The ASAT ([2]; 30′ after infusion) was 0.43 ukat/L, the “Cystatin C” value ([2]; 30′ after infusion) was 1.54 ± 0.41 mg/L and the GT ([2]; 30′ after infusion) was 0.82 ukat/L. For the same compound, the NT-proBNP ([2]; 30′ after infusion) was 2820 ng/L, the “Troponin T” value ([2]; 30′ after infusion) was 21 ± 10 ng/L and the hsCRP ([2]; 30′ after infusion) was 3.5 mg/L. For the same compound, the “Cystatin C” value ([2]; Baseline) was 1.45 ± 0.44 mg/L, the “Troponin T” value ([2]; Baseline) was 21 ± 9 ng/L and the ALAT ([2]; Baseline (Table 12)) was 0.31 ukat/L. The ASAT ([2]; Baseline (Table 12)) was 0.41 ukat/L, the “Cystatin C” value ([2]; Baseline (Table 12)) was 1.45 ± 10.44 mg/L and the GT ([2]; Baseline (Table 12)) was 0.77 ukat/L. The Haematocrit ([2]; Baseline (Table 12)) was 40 ± 4%, the “INR among non-warfarin treated” value ([2]; Baseline (Table 12)) was 1.1 and the “INR among warfarin treated” value ([2]; Baseline (Table 12)) was 2.2. The “Insulin (non-fasting)” value ([2]; Baseline (Table 12)) was 36 mlE/L, the NT-proBNP ([2]; Baseline (Table 12)) was 2080 ng/L and the Sodium ([2]; Baseline (Table 12)) was 139 ± 13 mmol/L. The Triglycerides ([2]; Baseline (Table 12)) was 1.4 mmol/L, the “Troponin T” value ([2]; Baseline (Table 12)) was 21 ± 10 ng/L and the “White blood cell count” value ([2]; Baseline (Table 12)) was 7.4 ± 1.9 109/L. For the same compound, the hsCRP ([2]; Baseline (Table 12)) was 2.7 mg/L, the ALAT [2, 3] was 0.31 ukat/L and the ASAT [2, 3] was 0.41 ukat/L. The GT [2, 3] was 0.77 ukat/L, the hsCRP [2, 3] was 2.7 mg/L and the NT-proBNP ([2]; Baseline, bracketed range in lines below) was 2080 ng/L. The ALAT ([2]; Infusion + 30′) was 0.31 ukat/L, the ASAT ([2]; Infusion + 30′) was 0.40 ukat/L and the “Cystatin C” value ([2]; Infusion + 30′) was 1.46 ± 0.44 mg/L. For the same compound, the GT ([2]; Infusion + 30′) was 0.78 ukat/L, the NT-proBNP ([2]; Infusion + 30′) was 2220 ng/L and the “Troponin T” value ([2]; Infusion + 30′) was 21 ± 9 ng/L. It also gave a hsCRP ([2]; Infusion + 30′) of 3.0 mg/L, an ALAT ([2]; Infusion + 60′) of 0.31 ukat/L and an ASAT ([2]; Infusion + 60′) of 0.44 ukat/L. The “Cystatin C” value ([2]; Infusion + 60′) was 1.55 ± 0.47* mg/L, the GT ([2]; Infusion + 60′) was 0.79 ukat/L and the NT-proBNP ([2]; Infusion + 60′) was 2340* ng/L. For the same compound, the “Troponin T” value ([2]; Infusion + 60′) was 22 ± 10 ng/L, the hsCRP ([2]; Infusion + 60′) was 3.0 mg/L and the ALAT ([2]; Infusion + 120′) was 0.31 ukat/L. For the same compound, the ASAT ([2]; Infusion + 120′) was 0.41 ukat/L, the “Cystatin C” value ([2]; Infusion + 120′) was 1.57 ± 0.43* mg/L and the GT ([2]; Infusion + 120′) was 0.80 ukat/L. For the same compound, the NT-proBNP ([2]; Infusion + 120′) was 2630* ng/L, the “Troponin T” value ([2]; Infusion + 120′) was 21 ± 10 ng/L and the hsCRP ([2]; Infusion + 120′) was 3.3 mg/L. The “Cystatin C” value ([2]; during infusion) was “increased” and the “NT-proBNP” value ([2]; during infusion) was “increased”.
